Assays:
Format in all cases: physicochemical
[1] = Temperature and moisture stability study (HPLC impurity profile)
Procedure: A stability study was conducted on tosylate salt and mesylate salt of Compound 1, by monitoring changes in the high performance liquid chromatography (HPLC) impurity profiles for each salt when exposed to various temperatures and/or humidity conditions. Each sample was placed in a closed container and exposed to three controlled environments: refrigerated (5° C.), 20° C. and 60% relative humidity, and 40° C. and 75% relative humidity. […] The stability study of the crystalline tosylate salt was continued.
Samples were analyzed by the following reversed-phase HPLC impurity profile method at time points 0, 1, 2, 4 weeks (Table 7) and 3 months (Table 8) for the tosylate salt; and 0, 1 and 2 weeks for the mesylate salt (Table 9).
(§1) Reversed-phase HPLC analysis was conducted using a SYMMETRY SHIELD RP18 column (4.6×250 mm, 5 µm particle size), although analysis using a similar or equivalent column would be expected to yield similar results. The mobile phase components were 0.01 M ammonium acetate in water at pH 3.3 (A) and acetonitrile (B). The mobile phase composition was a gradient that increased from 6% to 15% B in five minutes, held at 15% B for 15 minutes, increased from 15% to 60% B in ten minutes, then from 60% to 90% B in two minutes, and then the system was re-equilibrated at 6% B for four minutes. The flow rate was 1.0 mL/minute, and the injection volume was 10.0 μL. The column temperature was maintained at 30° C. Detection was by ultraviolet light (UV) at 280 nm. The retention time for Compound 1 was approximately 15.7 minutes. The sample solution was prepared in mobile phase A to a final concentration of 2.0 mg/mL.

[2] = pH of crystalline tosylate salt in water; conditions: 122.1 mg in 1.0 mL of water
Procedure: (§2) The solubilities were determined by mixing excess solids with solvent, at ambient temperature for two hours, followed by filtration of the supernatant. The supernatant concentration was determined by high-performance liquid chromatography (HPLC). […] The pH of 122.1 mg of the subject crystalline tosylate salt in 1.0 mL of water was determined to be 5.70.

[3] = Hygroscopicity by symmetric vapor sorption analyzer; conditions: 95% RH, 25.0° C.
Procedure: The hygroscopicity of the subject crystalline tosylate salt was determined using a symmetric vapor sorption analyzer, and reported as wt % gained as a function of percent relative humidity (% RH) from 5% to 95% to 1%, at 5% intervals at 25.0° C. A maximum weight gain of 12 wt % at 95% RH, with slight hysteresis upon desorption, was observed, and a 2 wt % loss due to IPA was observed.

[4] = Solubility of crystalline tosylate salt (excess solids, HPLC of supernatant); conditions: for Solubility: ambient temperature, two hours
Procedure: as §2

[5] = Water content and room temperature stability of crystalline tosylate salt
Procedure: Upon drying, water content in the crystalline tosylate salt of Compound 1 was calculated to be 0.5%. After standing at room temperature for 24 hours, this value increased to 5%. In contrast to the amorphous Compound 1, the crystalline tosylate salt of Compound 1 was stable for weeks and months at room temperature, maintaining a water content of approximately 5%.

[6] = Photostability study (HPLC impurity profile)
Procedure: as §1
A photostability study was conducted on the tosylate salt of Compound 1. Two samples were prepared in clear glass Petri dishes. One sample was wrapped in aluminum foil to serve as a control sample. Both samples were placed in the ES 2000 Environmental Light 10 Chamber and exposed to 12 kilolux of cool white fluorescent light for a total of 47 hours.

[7] = Solid phase stability of amorphous Compound 1; conditions: temperatures higher than 0° C. and when exposed to air
Text: Tetracycline-type antibiotic compounds have long been known to have limited stability in the solid phase freebase form. One such non-crystalline tetracycline analog compound, (4S,4AS,5AR,12AS)-4-7-Bis(dimethylamino)-9-{[(2,2-dimethylpropyl)amino]methyl}-3,10,12,12A-tetrahydroxy-1,1′-dioxo-1,4,4A,5,5A,6,11,12A-octahydrotetracene-2-carboxamide (Compound 1; MW=556.66, MF=C29H40N4O7), has limited stability in the solid phase upon exposure to air, light and/or moisture.
Specifically, Compound 1 is a yellow amorphous solid that is unstable at temperatures higher than 0° C. and when exposed to air. Compound 1 must be stored at temperatures below 0° C. with limited exposure in the solid phase to air, light and moisture. Outside of these limited exposure conditions, Compound 1 degrades to produce degradation products including air degradation products 2, 3 and 4, as well as the 4-epi-isomer 5.

[8] = Stability studies on free base Compound 1 and amorphous diHCl salt
Procedure: Stability studies were performed on the free base Compound 1 and an amorphous diHCl salt of Compound 1. This salt was formed by dissolving the compound in aqueous solution, adjusting the pH of the solution to approximately 4.2, followed by lyophilization. The free base degraded in less than one month at 40° C., and approximately three months at 4° C. In contrast, the diHCl salt of Compound 1 was stable for 6 months at 40° C., and for two years at room temperature (25° C.).

[9] = room temperature, weeks and months
[10] = Control sample wrapped in aluminum foil, 47 hours in light chamber
[11] = Exposed to 12 kilolux cool white fluorescent light, 47 hours

## CN(C)c1cc(CNCC(C)(C)C)c(O)c2c1CC1CC3C(N(C)C)C(O)=C(C(N)=O)C(=O)C3(O)C(O)=C1C2=O.Cc1ccc(S(=O)(=O)O)cc1 (stereo not shown) [tosylate salt of Compound 1]
[1]; 0 month, 20° C. & 60% RH
  4-keto compound RRT = 1.57: 0.05%
  Beta-epimer RRT = 1.26: 1.76%
  Total impurity: 2.12%
[1]; 0 month, 40° C. & 75% RH
  4-keto compound RRT = 1.57: 0.05%
  Beta-epimer RRT = 1.26: 1.76%
  Total impurity: 2.12%
[1]; 1 week, 5° C.
  Compound 1: 98.5%
  RRT 0.52: 0.09%
  RRT 1.19: 0.21%
  RRT 1.26 (beta-epimer): 1.1%
  RRT 1.77: 0.11%
  Total Impurities: 1.51
[1]; 1 week, 20° C. & 60% RH
  Compound 1: 98.3%
  RRT 0.52: 0.09%
  RRT 1.19: 0.21%
  RRT 1.26 (beta-epimer): 1.2%
  RRT 1.77: 0.12%
  Total Impurities: 1.63
[1]; 1 week, 40° C. & 75% RH
  Compound 1: 98.2%
  RRT 0.52: 0.09%
  RRT 0.77: 0.05%
  RRT 1.19: 0.21%
  RRT 1.26 (beta-epimer): 1.3%
  RRT 1.77: 0.14%
  Total Impurities: 1.80
[1]; 2 weeks, 5° C.
  Compound 1: 98.4%
  RRT 0.52: 0.08%
  RRT 0.93: 0.08%
  RRT 1.19: 0.24%
  RRT 1.26 (beta-epimer): 1.1%
  RRT 1.77: 0.12%
  Total Impurities: 1.62
[1]; 2 weeks, 20° C. & 60% RH
  Compound 1: 98.4%
  RRT 0.52: 0.08%
  RRT 0.93: 0.08%
  RRT 1.19: 0.25%
  RRT 1.26 (beta-epimer): 1.1%
  RRT 1.77: 0.15%
  Total Impurities: 1.66
[1]; 2 weeks, 40° C. & 75% RH
  Compound 1: 98.3%
  RRT 0.52: 0.08%
  RRT 0.93: 0.09%
  RRT 1.19: 0.25%
  RRT 1.26 (beta-epimer): 1.1%
  RRT 1.77: 0.16%
  Total Impurities: 1.68
[1]; 3 month, 20° C. & 60% RH
  4-keto compound RRT = 1.57: 0.10%
  Beta-epimer RRT = 1.26: 1.74%
  M-2 impurity RRT = 0.84: 0.18%
  Total impurity: 2.86%
[1]; 3 month, 40° C. & 75% RH
  4-keto compound RRT = 1.57: 0.14%
  Beta-epimer RRT = 1.26: 1.66%
  M-2 impurity RRT = 0.84: 0.31%
  Total impurity: 3.12%
[1]; 4 weeks, 5° C.
  Compound 1: 98.3%
  RRT 0.52: 0.09%
  RRT 0.77: 0.08%
  RRT 0.93: 0.07%
  RRT 1.19: 0.23%
  RRT 1.26 (beta-epimer): 1.0%
  RRT 1.77: 0.14%
  Total Impurities: 1.61
[1]; 4 weeks, 20° C. & 60% RH
  Compound 1: 98.2%
  RRT 0.52: 0.10%
  RRT 0.77: 0.10%
  RRT 0.93: 0.12%
  RRT 1.19: 0.24%
  RRT 1.26 (beta-epimer): 1.1%
  RRT 1.77: 0.18%
  Total Impurities: 1.84
[1]; 4 weeks, 40° C. & 75% RH
  Compound 1: 98.1%
  RRT 0.52: 0.10%
  RRT 0.77: 0.17%
  RRT 0.93: 0.13%
  RRT 1.19: 0.26%
  RRT 1.26 (beta-epimer): 1.1%
  RRT 1.77: 0.20%
  Total Impurities: 1.96
[1]; Initial
  Compound 1: 98.4%
  RRT 0.52: 0.06%
  RRT 1.19: 0.24%
  RRT 1.26 (beta-epimer): 1.2%
  RRT 1.77: 0.10%
  Total Impurities: 1.60
[1]; after two weeks, 5° C., 20° C. & 60% RH, 40° C. & 75% RH
  relative stability among crystalline forms: most stable crystalline form
[1]; refrigerated and/or 20° C. & 60% RH, at least four weeks
  storage stability: stable
[2]
  pH: 5.70
[3]
  maximum weight gain (hygroscopicity): 12 wt %
[4]; 56.8 mg in 0.5 mL water
  Equilibration in water (appearance): clear solutions
[4]; 122.1 mg in 1.0 mL water
  Equilibration in water (appearance): clear solutions
[4]; Acetonitrile
  Solubility: 5.9 mg/mL
[4]; IPA
  Solubility: 5.8 mg/mL
[4]; Methanol
  Solubility: 86.1 mg/mL
[4]; Water
  Solubility: >100 mg/mL
[5]; after standing at room temperature for 24 hours
  water content: 5%
[5]; [9]
  stability at room temperature: stable
  water content maintained: approximately 5%
[5]; upon drying
  water content: 0.5%
[6]; [10]
  Compound 1: 98.2%
  RRT 0.52: 0.06%
  RRT 0.77: 0.08%
  RRT 0.93: 0.12%
  RRT 1.19: 0.26%
  RRT 1.26: 1.2%
  RRT 1.77: 0.16%
[6]; [11]
  Compound 1: 98.2%
  RRT 0.52: 0.06%
  RRT 0.77: 0.09%
  RRT 0.93: 0.13%
  RRT 1.19: 0.26%
  RRT 1.26: 1.1%
  RRT 1.77: 0.16%

## CN(C)c1cc(CNCC(C)(C)C)c(O)c2c1C[C@H]1C[C@H]3[C@H](N(C)C)C(O)=C(C(N)=O)C(=O)[C@@]3(O)C(O)=C1C2=O [Compound 1, (4S,4AS,5AR,12AS)-4-7-Bis(dimethylamino)-9{[(2,2-dimethylpropyl)amino]methyl}-3,10,12,12A-tetrahydroxy-1,1′-dioxo-1,4,4A,5,5A,6,11,12A-octahydrotetracene-2-carboxamide]
[7]
  solid phase stability: unstable
[8]; 4° C.
  time in which the substance degraded: approximately three
[8]; 40° C.
  time in which the substance degraded: less than one

Source: patent publication US9227921B2, “Salts and polymorphs of a tetracycline compound” (Paratek Pharmaceuticals, Inc., priority 2008, dated 2016)
